Drawing on the NIST ThermoML archive (doi:10.1021/je050006+), this text covers mass density and speed of sound for three compounds.

The conditions of the series: 101.33 kPa, Liquid.

The structures appear in SMILES notation. ± gives the expanded uncertainty stated by the source.

In general, mass density refers to mass per unit of volume. Broadly, the speed of sound is how fast a sound wave travels through the sample. Turning to `CCO` [ethanol], the mass density (283.15 K) was 797.94 ± 0.45 kg/m3, the mass density (298.15 K) is listed as 785.12 ± 0.47 kg/m3 and the mass density (313.15 K) is listed as 772.53 ± 0.49 kg/m3. Also, the speed of sound by setting is: (283.15 K) 1195.2 ± 3.2 m/s; (298.15 K) 1143.3 ± 3.1 m/s; (313.15 K) 1093.8 ± 3 m/s.
Regarding `CCCO` [propan-1-ol], the mass density is reported as 811.48 ± 0.59 kg/m3 (283.15 K), 799.66 ± 0.6 kg/m3 (298.15 K) and 787.76 ± 0.61 kg/m3 (313.15 K). Moreover, the speed of sound is 1257.9 ± 3.5 m/s (283.15 K), 1206 ± 3.4 m/s (298.15 K) and 1155.1 ± 3.3 m/s (313.15 K).
Take `C=C1CCC2CC1C2(C)C` (stereo not drawn) [β-pinene]: the mass density stood at 879.07 ± 0.55 kg/m3 (283.15 K), 866.97 ± 0.55 kg/m3 (298.15 K) and 855.5 ± 0.56 kg/m3 (313.15 K). Also, the speed of sound (283.15 K) was found to be 1356.8 ± 3.7 m/s, the speed of sound (298.15 K) amounted to 1298.7 ± 3.5 m/s and the speed of sound (313.15 K) was determined as 1232.8 ± 3.4 m/s.
